Where no end group is shown, it is not given here.

Test [1] has as its system MVF-PD-L1 peptide immunogen. The test can be described thus: Immunogenicity in Balb/c mice, experiment 2 (CT26/HER-2): ELISA of sera vs each MVF-PD-L1 peptide immunogen. It is filed as in vivo. The note with it: Balb/c mice. As for the experimental part: Immunogenicity of MVF-PD-L1 B-cell epitopes. New Zealand White rabbits were immunized with 1 mg of each MVF-peptide immunogens dissolved in dd H2O emulsified (1:1) in Montanide ISA 720 vehicle (Seppic) with 333 μg of N-acetylglucosamine-3yl-acetyl-1-alanyl-d-isoglutamine (nor-MDP). Rabbits were boosted with the same doses at 3-week's intervals. Blood was collected via the central auricular artery in rabbits. Blood was collected weekly (1Y+3, 2Y+1, 2Y+2,2Y+3, 3Y+1, 3Y+2 and sera tested for antibody titers by ELISA using the immunogens MVF-PD-L1 peptides. Sera (terminal) from rabbit (3Y+3) immunized with MVF-PD-1 peptide immunogens were tested individually versus the immunogen by ELISA. 200 ng/well peptide were used in duplicates to coat the ELISA plates. Titers are defined as the highest dilution of sera with an absorbance value of 0.2 after subtracting the blank. […]
In order to verify the efficacy of the PD-L1 epitope vaccines in vivo in the CT26/HER-2 carcinoma cell line, Balb/c mice (10 mice/group) were immunized with 100 μg each of MVF-PD-L1 (36-53), MVF-PD-L1 (50-67), MVF-PD-L1 (95-112) and MVF-PD-L1 (130-147) emulsified with nor-MDP and Montanide 720 (1:1 ratio) SCHEME 2A (FIG. 15A). As detailed in SCHEME 2A-D (FIGS. 15A, 15B, 15C, and 15D), mice were immunized 3 times at 3 weeks intervals. […] All PD-L1 epitopes elicited high titers of PD-L1 anti-peptide antibodies by ELISA. […] We also investigated the combination of PD-1(92-110) with PD-L1-95.
For each peptide, vaccine antibodies were raised in New Zealand white rabbits, purchased from Charles River Laboratories (Wilmington, MA, USA). Rabbits were immunized with 1 mg of MVF chimeric peptide emulsified in Montanide ISA 720 (Seppic, Paris, France) and boosted 3 times at three week intervals. For mouse experiments, mice, 6-8 weeks old, were immunized with 0.1 mg of peptide emulsified in ISA720 (1:1 ratio). Mice were boosted with the respective doses at 3-week intervals. Blood was then collected and sera were tested for antibody titers. Sera were collected weekly and peptide vaccine antibodies were purified by affinity chromatography using a protein A/G column and the concentration was measured using Spectrophometer. All experiments were performed in accordance with the U.S. Public Health Service Policy on Humane Care and Use of Laboratory animals and approved by the Ohio State University Institutional Animals Care and Use Committee, detailed in the accepted protocol.
6-8 weeks old BALB/c mice (Charles River, Wilmington, MA) were used as standard animal models. Mouse CT26 colon carcinoma cell line was purchased from American Type Culture Collection Cells and were regularly cultured in RPMI1640 medium containing 10% FBS. CT26/HER2 cells were kindly provided by M. Penichet. Vaccines were dissolved in sterile water and emulsified in Montanide ISA 720 (1:1). Female Balb/c mice (Charles River Laboratories) at the age of 6-8 weeks were immunized three times at 3-week intervals with 100 μg of each peptide vaccine, and 2 weeks after the third immunization, the mice were challenged with CT26 and/or CT26/HER-2 tumor cells, which were implanted subcutaneously (s.c) on the right flank (1×10^5 per mouse). 200 μg of rat α-mouse PD-L1 mAb 10F.9G2 (Bio X Cell, West Lebanon, NH) were administered intraperitoneally (i.p.), twice weekly following tumor inoculation in the control group. Mice were monitored and scored for the formation of palpable tumors on a daily basis and sacrificed if tumors became necrotic or exceeded the predetermined size of 2,000 mm^3. Tumor volumes were measured in cubic millimeters with calipers and calculated with the following formula: A×B^2×0.5, where A is the largest diameter, and B is the widest point perpendicular to length. During immunization, blood was drawn weekly and used in ELISA to monitor antibody titers.

Another test deals with T1, PD-1/PD-L1 interaction (Homo sapiens, UniProt Q9NZQ7).
T1 construct: host or cells: PD-L1 aAPC/CHO-K1 cells and PD-1 effector cells
T1 sequence (Q9NZQ7 19-290): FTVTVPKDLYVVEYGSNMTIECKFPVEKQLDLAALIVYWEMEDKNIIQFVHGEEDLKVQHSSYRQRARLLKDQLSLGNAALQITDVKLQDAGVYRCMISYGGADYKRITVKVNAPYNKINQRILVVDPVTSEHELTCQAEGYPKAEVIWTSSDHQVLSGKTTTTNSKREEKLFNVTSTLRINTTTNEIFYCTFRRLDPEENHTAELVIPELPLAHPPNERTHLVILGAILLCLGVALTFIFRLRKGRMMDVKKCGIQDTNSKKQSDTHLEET
Put plainly: PD-1/PD-L1 blockade bioassay (Promega). It is filed as cell-based. The note with it: antibodies from immunized rabbits, compared to Nivolumab and Atezolizumab. As for the experimental part: The assay was performed following the manufacturer's protocol for the PD-1/PD-L1 blockade bioassay (Promega).
The bioluminescent cell-based PD-1/PD-L1 blockade bioassays provide a good option for rapid screening of therapeutic antibodies or other compounds developed to interfere with PD-1-signaling interaction. PD1/PD-L1 blockade assay was used to test the functionality of 3 anti-PD-L1 antibodies. It was observed that purified polyclonal anti-PD-L1 antibody from the rabbits was able to block PD1/PD-L1 interaction similar to commercial anti-human PD-L1 antibody (FIG. 12). […] In FIG. 12, we show the capacity of each of the PD-L1 vaccines to block the PD-1:PD-L1 interaction as compared to Nivolumab and Atezolizumab. Remarkably only PD-L1 130-147 antibodies were effective
The assay was performed following the manufacturer's protocol for the PD-1/PD-L1 blockade bioassay (Promega). In brief, 4×10^5 aAPC/CHO-K1 or PD-L1 aAPC/CHO-K1 cells were seeded into 96-well plates in RPMI-1640 with 10% FBS. After overnight culturing, the medium was aspirated, and serially diluted purified PD-L1 or PD-1 antibodies, as well as Nivolumab and Atezolizumab antibodies (as reference antibodies) were added. Next, PD-1 effector cells were co-cultured and plate was kept for 5 h at 37° C. in a humidified 5% CO2 incubator. Following mixing with Bio-Glo Reagent, the luminescence was measured with a luminescence plate reader, SpectraMax M3 plate reader (Molecular Devices).

In the case of “KLLSLIKGVIVHRLEGVEGPSLYRCMISYGGADYKRITVK (KLLSLIKGVIVHRLEGVEGPSLYRCMISYGGADYKRITVK-NH2) [PD-L1(95)]”, the “Immunogenicity (titers) 1′ Conc. 1:” value turned out to be 100 in test [1] (bleed 1Y + 3); 12800 in test [1] (bleed 2Y + 1); 64000 in test [1] (bleed 2Y + 2); 64000 in test [1] (bleed 2Y + 3); 128000 in test [1] (bleed 3Y + 1); 128000 in test [1] (bleed 3Y + 2). The “Immunogenicity (titers) 1′ Conc. 1:” value in test [1] (bleed 3Y + 3) is reported as 128000. Further, in the test with PD-1/PD-L1 interaction, the “blocking of PD-1/PD-L1 interaction” value was “unable to block PD-1 and PD-L1”.

As to “KLLSLIKGVIVHRLEGVEGPSLFVHGEEDLKVQHSSYRQR (KLLSLIKGVIVHRLEGVEGPSLFVHGEEDLKVQHSSYRQR-NH2) [PD-L1(50)]”, the “Immunogenicity (titers) 1′ Conc. 1:” value in test [1] (bleed 1Y + 3) is listed as 6400; in test [1] (bleed 2Y + 1), 25600; in test [1] (bleed 2Y + 2) it was 128000; in test [1] (bleed 2Y + 3) it was 128000; in test [1] (bleed 3Y + 1), 128000; in test [1] (bleed 3Y + 2), 256000. Moreover, the “Immunogenicity (titers) 1′ Conc. 1:” value in test [1] (bleed 3Y + 3) worked out at 256000. In the test with PD-1/PD-L1 interaction, the “blocking of PD-1/PD-L1 interaction” value was “unable to block PD-1 and PD-L1”.
